Several values for one entry are separate records, joined by “and”; a condition that tells them apart may be missing. Identical values can stand only once. Entries after “also recorded” stand apart in the source; their conditions may differ. Like-named read-outs stand apart in the source and are kept apart here. Bounds are passed on as bounds.

Assay [1] concerns the target T1, WbDHFR (Wuchereria bancrofti, UniProt J9F199). In kind it is biochemical. To be noted: for inhibition of WbDHFR (in words): pH 6.0, 25°C. As for the experimental part: (§1) Compounds (-)-epicatechin, (-)-epicatechin gallate, and vitexin were tested as inhibitors of WbDHFR and BmDHFR. The compounds (-)-epicatechin and (-)-epicatechin gallate were synthesized as described previously. […] Disappearance of DHF and NADPH was observed by measuring absorbance at 340 nm to measure the DHFR activity in a SpectraMax M3 microplate reader. […] All experiments were completed in triplicate.

Assay [2] deals with T2, BmDHFR (Brugia malayi, UniProt A0A4E9FIQ4). As to the kind of experiment: biochemical. In kind it is biochemical. To be noted: for inhibition of BmDHFR (in words): pH 6.0, 25°C. As for the experimental part: as §1
A linear equation was fitted to the data at each substrate concentration. […] The KI values for BmDHFR in Table 1 were obtained using the Cheng-Prusoff Equation [18]. […] Inhibitor structures are shown in supporting information (S2 Fig).

The target of assay [3] is T2, BmDHFR. The arrangement: method as in PMID 26669020. To be noted: computational prediction, cited from earlier work.
The target in assay [4] is T1, WbDHFR. As to the kind of experiment: Michaelis-Menten kinetics of WbDHFR, KM for DHF. Format: biochemical. To be noted: pH 6.0, 25°C, 100 μM NADPH, MTEN buffer; ± S.D. As for the experimental part:
To characterize DHFR enzymatic activity, we measured absorbance at 340 nm to follow the disappearance of DHF substrate and NADPH cofactor over time. The KM of WbDHFR for DHF was determined over a concentration range of 3.8 to 195 μM DHF, at 25°C, in MTEN buffer (50 mM 2-morpholinoethane sulphonic acid (MES), 25 mM Tris, 25 mM ethanolamine, 100 mM NaCl, and 1mM DTT) at pH 6.0. Initial velocity was plotted as a function of DHF concentration using KaleidaGraph and the Michaelis-Menten equation was fitted to the data. Catalytic activities of WbDHFR and BmDHFR were determined at various pH values (5.5–9.0) in MTEN buffer. The MTEN buffer used for all the reported assays has essentially a constant ionic strength at 0.15 over the pH range for which pH values were measured. Initial velocity was plotted as a function of pH using Excel.
Fig 2 Representative Michaelis-Menten curve. The conditions in the experimental wells (200 μL) were 100 μM NADPH, 12.4 nM WbDHFR in 1 X MTEN buffer at pH 6.0 with DHF concentrations ranging from 0 to 195 μM. The Michaelis-Menten equation was fitted to the data using KaleidaGraph. The Michaelis-Menten constant for DHF was determined by averaging values from fitting three separate data sets and found to be 3.7 ± 2.0 μM (S.D.).

The target in assay [5] is T2, BmDHFR. To be noted: read-out: KM previously determined for BmDHFR; cited from earlier work.
Assay [6] concerns the target T2, BmDHFR. The arrangement: method as in PMID 27544923. To be noted: read-out: IC50 BmDHFR found previously; cited from earlier work.
The mark [7] stands for this setting: pH 6.0, 100 μM NADPH, 50 μM DHF, 40 nM BmDHFR, average of triplicates ± S.D., read-out: IC50 BmDHFR.
[8] abbreviates: read-out: predicted KI against BmDHFR.
The mark [9] stands for this setting: IC50 BmDHFR, pH 6.0, 100 μM NADPH, 50 μM DHF, 40 nM BmDHFR, average of triplicates ± S.D.
Setting [10] is: IC50 against BmDHFR Average, average of three trials.
Where [11] appears, read: IC50 against BmDHFR Trial 1, individual trial.
The mark [12] stands for this setting: IC50 against BmDHFR Trial 2, individual trial.
Setting [13] is: IC50 against BmDHFR Trial 3, individual trial.
The mark [14] stands for this setting: average of three trials, read-out: IC50 against BmDHFR Average.
The mark [15] stands for this setting: individual trial, read-out: IC50 against BmDHFR Trial 1.
[16] abbreviates: individual trial, read-out: IC50 against BmDHFR Trial 2.
Where [17] appears, read: obtained using the Cheng-Prusoff Equation, upper limit for tight-binding inhibitors, read-out: KI BmDHFR.

On to (-)-epicatechin gallate, for which the IC50 at WbDHFR [1] (pH 6.0, 100 μM NADPH, 50 μM DHF, 12.1 nM WbDHFR, average of triplicates ± S.D., read-out: IC50 WbDHFR) was more than 1000 µM; on BmDHFR [2] (setting [7]), more than 1000 µM. Besides, the “inhibition of WbDHFR (in words)” value on WbDHFR [1] is on record as “did not observe inhibition; also recorded: neither compound showed any inhibitory activity”. Also, the “inhibition of BmDHFR (in words)” value on BmDHFR [2] is reported as “did not observe inhibition; also recorded: neither compound showed any inhibitory activity”. The Ki on BmDHFR [3] (setting [8]) was 48 µM.

On to `Nc1nc(N)c2nc(CNc3ccc(C(=O)N[C@@H](CCC(=O)O)C(=O)O)cc3)cnc2n1` [Aminopterin, aminopterin], for which the “inhibition of WbDHFR (in words)” value at WbDHFR [1] is “inhibit”. The Ki on BmDHFR [2] was less than 0.0017 µM. Further, the IC50 at BmDHFR [2] (setting [9]) was found to be 0.0075 ± 0.0003 µM; at BmDHFR [2] (setting [10]) it was 0.00755 µM; on BmDHFR [2] (setting [11]), 0.0072 µM; at BmDHFR [2] (setting [12]) it was 0.0076 µM; at BmDHFR [2] (setting [13]), 0.00784 µM.

Regarding `Nc1nc(=O)c2c([nH]1)NCC(CNc1ccc(C(=O)N[C@@H](CCC(=O)O)C(=O)O)cc1)=N2` [DHF, dihydrofolate], the Km at WbDHFR [4] is 3.7 ± 2 µM; on BmDHFR [5] it was 14.7 ± 3.6 µM.

Turning to `Oc1cc(O)c2c(c1)O[C@H](c1ccc(O)c(O)c1)[C@H](O)C2` [(-)-Epicatechin, (-)-epicatechin], the “inhibition of WbDHFR (in words)” value on WbDHFR [1] is reported as “did not observe inhibition; also recorded: neither compound showed any inhibitory activity”. The IC50 at BmDHFR [2] (setting [7]) was more than 2500 µM. For the same compound, on BmDHFR [2], the “inhibition of BmDHFR (in words)” value is given as “did not observe inhibition; also recorded: neither compound showed any inhibitory activity”. Also, the Ki at BmDHFR [3] (setting [8]) was 76 µM.

As to `COc1cc(Cc2cnc(N)nc2N)cc(OC)c1OC` [Trimethoprim, trimethoprim], the “inhibition of WbDHFR (in words)” value against WbDHFR [1] was “inhibit”. Further, the Ki at BmDHFR [2] was 15 ± 3 µM; at BmDHFR [3] (setting [8]), 11 µM. In addition, the IC50 against BmDHFR [2] (setting [9]) worked out at 65 ± 13 µM; against BmDHFR [2] (setting [10]), 64.7 µM; at BmDHFR [2] (setting [11]) it was 80.4 µM; against BmDHFR [2] (setting [12]), 61.1 µM; against BmDHFR [2] (setting [13]) it was 48.9 µM.

With `O=c1cc(-c2ccc(O)cc2)oc2c([C@@H]3O[C@H](CO)[C@@H](O)[C@H](O)[C@H]3O)c(O)cc(O)c12` [Vitexin, vitexin], on WbDHFR [1], the “inhibition of WbDHFR (in words)” value was “did not observe inhibition”. Moreover, on BmDHFR [2] (setting [9]), the IC50 was more than 240 µM. At BmDHFR [2], the “inhibition of BmDHFR (in words)” value is “did not observe any inhibition”. Moreover, at BmDHFR [3] (read-out: predicted inhibitor of BmDHFR), the Ki is 0.465 µM.

As for `Cc1nc2ccc(CN(C)c3ccc(C(=O)N[C@@H](CCC(=O)O)C(=O)O)s3)cc2c(=O)[nH]1` [Raltitrexed, raltitrexed], on WbDHFR [1], the “inhibition of WbDHFR (in words)” value is “inhibit”. The IC50 turned out to be 7.3 µM on BmDHFR [2] (setting [14]), 7.1 µM at BmDHFR [2] (setting [15]), 6.83 µM on BmDHFR [2] (setting [16]) and 7.3 ± 0.2 µM at BmDHFR [2] (setting [7]). The Ki on BmDHFR [2] (setting [17]) came out at 1.6 ± 0.04 µM.

For the compound `CN(Cc1cnc2nc(N)nc(N)c2n1)c1ccc(C(=O)N[C@@H](CCC(=O)O)C(=O)O)cc1` [Methotrexate, methotrexate], the “inhibition of WbDHFR (in words)” value against WbDHFR [1] is “inhibit”.

`CCc1nc(N)nc(N)c1-c1ccc(Cl)cc1` [Pyrimethamine, pyrimethamine]: the “inhibition of WbDHFR (in words)” value at WbDHFR [1] is given as “inhibit”. For the same compound, the IC50 was 16 µM on BmDHFR [2] (setting [14]); 16.4 µM at BmDHFR [2] (setting [15]); 21.8 µM at BmDHFR [2] (setting [16]); 8.7 µM on BmDHFR [2] (individual trial, read-out: IC50 against BmDHFR Trial 3); 15.6 µM and 16 µM on BmDHFR [2] (setting [7]); 109 ± 34 µM at BmDHFR [6]. On BmDHFR [2] (setting [17]), the Ki is 3.6 ± 1.5 µM.

(Values after PMC5963757, “Expression, purification, and inhibition profile of dihydrofolate reductase from the filarial nematode Wuchereria bancrofti” (PLoS ONE, 2018).)
